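Exposure lasted 48 hours, with cells grown in 96-well plates and compounds tested at five concentrations. At the GI50, growth is halved. TGI: total growth inhibition.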

The text below walks through data of PubChem BioAssay (NCI).

Holding throughout (assay): NCI-60 cell line screen, 48 h
The test system of test [1] is 786-0 renal.
Test [2] concerns A498 renal.
For test [3], the system named is SF-268 CNS.
Test [4] deals with SF-295 CNS.
In test [5] the test system is SK-MEL-28 melanoma.
In test [6] the test system is MALME-3M melanoma.
The subject of test [7] is SK-MEL-2 melanoma.
Test [8] deals with SF-539 CNS.

`COC(=O)[C@]12CC[C@@H](C)[C@H](C)[C@@H]1C1=CC[C@@H]3[C@@]4(C)C(C=O)=C[C@@](C)(CO)[C@@H]4[C@H](O)C[C@@]3(C)[C@]1(C)CC2`: the GI50 was 2.97 µM in test [1]; 6.37 µM in test [2]; 5.16 µM in test [3]; 3.94 µM in test [4]; 3.33 µM in test [5]; 2.62 µM in test [6]. Besides, the GI50 in test [7] is 7.26 µM; in test [8] it was 10.1 µM. Also, the TGI in test [1] was 11.1 µM; in test [2] it was 19.4 µM; in test [3] it was 20.4 µM; in test [4], 16.5 µM; in test [5], 12.4 µM; in test [6] it was 10.4 µM. Also, the TGI in test [7] turned out to be 22.5 µM; in test [8], 22.8 µM.
As for `O=C1C=C(NCCO)c2nccc3c2c1nc1ccccc13`, the GI50 in test [1] is 31.5 µM; in test [2], 38.2 µM; in test [3] it was 26.4 µM; in test [4], 18.5 µM; in test [5], 41.4 µM; in test [6], 17.4 µM. Further, the GI50 in test [7] is 27.7 µM; in test [8], 22.9 µM. The TGI in test [1] is more than 100 µM; in test [2] it was more than 100 µM; in test [3], more than 100 µM; in test [4], more than 100 µM; in test [5] it was more than 100 µM; in test [6], 49 µM. Moreover, the TGI in test [7] worked out at 88.2 µM; in test [8], 73.1 µM.
As for `C=C1c2nc3ccccc3n2C=C(c2cccc(Cl)c2)N1Cc1ccc(OC)cc1`, the GI50 in test [1] was 3.08 µM; in test [2], 9.33 µM; in test [3], 1.05 µM; in test [4], 1.42 µM; in test [5] it was 10.5 µM; in test [6] it was 0.717 µM. The GI50 in test [7] was 0.636 µM; in test [8] it was 0.745 µM. Further, the TGI in test [1] is 17.3 µM; in test [2] it was 60.4 µM; in test [3] it was more than 57.2 µM; in test [4], 6.91 µM; in test [5], 54.4 µM; in test [6], 72 µM. For the same compound, the results for the TGI in test [7] and in test [8] were 68 µM and 4.56 µM, respectively.
With `c1ccc(-c2[nH]ncc2-c2ccnc(-c3ccc(OCCN4CCOCC4)cc3)c2)nc1`, the GI50 in test [1], in test [2], in test [3], in test [4], in test [5] and in test [6] was more than 25 µM in each case. Further, the GI50 in test [7] and in test [8] was more than 25 µM throughout. The TGI in test [1], in test [2], in test [3], in test [4], in test [5] and in test [6] was more than 25 µM in each case. For the same compound, the TGI in test [7] and in test [8] was more than 25 µM in each case.
For the compound `CC(C)(C)[Si](C)(C)OCC1OC(n2cnc3c(=O)[nH]cnc32)CC1O` (stereo not drawn), the TGI in test [1], in test [2], in test [3], in test [4], in test [5] and in test [6] was more than 100 µM in each case. In addition, the TGI in test [7] and in test [8] was more than 100 µM in each case.
On to `CN1CCC2(CC1)N=C(SCC(=O)Nc1cnc3ccccc3c1)C(c1ccc(Br)cc1)=N2`, for which the GI50 in test [1] is 1.5 µM; in test [2] it was 3.96 µM; in test [3], 3.46 µM; in test [4], 1.79 µM; in test [5] it was 1.79 µM; in test [6] it was 1.78 µM. Moreover, the GI50 is 1.93 µM in test [7] and 1.74 µM in test [8]. Moreover, the TGI in test [1] came to 2.85 µM; in test [2] it was 14.9 µM; in test [3] it was 14.7 µM; in test [4] it was 3.93 µM; in test [5], 3.3 µM; in test [6], 3.36 µM. Moreover, the results for the TGI in test [7] and in test [8] were 3.88 µM and 3.41 µM, respectively.
Take `C=C1C(=O)O[C@H]2[C@H]1CC/C(COC(=O)c1cccnc1N)=C\CC[C@@]1(C)O[C@@H]21`: the GI50 was 1.7 µM in test [1]; 2.56 µM in test [2]; 3.54 µM in test [3]; 4.15 µM in test [4]; 2.01 µM in test [5]; 1.91 µM in test [6]. In addition, the GI50 in test [7] was 3.16 µM; in test [8], 2.56 µM. Further, the TGI in test [1] was 4.24 µM; in test [2], 7.27 µM; in test [3], 16.5 µM; in test [4] it was 16 µM; in test [5] it was 8.85 µM; in test [6], 6.65 µM. In addition, the results for the TGI in test [7] and in test [8] were 12.5 µM and 8.74 µM, respectively.
For `C[C@]12CC[C@H](O[C@@H]3O[C@H](CO[C@@H]4O[C@H](CO)[C@@H](O)[C@H](O)[C@H]4O)[C@@H](O)[C@H](O)[C@H]3O)C[C@@H]1CC[C@@H]1[C@@H]2CC[C@]2(C)[C@@H](C3=CC(=O)OC3)CC[C@]12O`, the TGI in test [1] was more than 100 µM; in test [2], 70 µM; in test [3] it was 29.5 µM; in test [4], more than 31.6 µM; in test [5], more than 100 µM; in test [6], 38.1 µM. Moreover, the results for the TGI in test [7] and in test [8] were more than 94 µM and 33.2 µM, respectively.
As for `NCCCNc1nc2ccccc2c2c(=O)c3cc(F)ccc3sc12`, the GI50 was 1.54 µM in test [1]; 1.48 µM in test [2]; 1.45 µM in test [3]; 1.76 µM in test [4]; 1.79 µM in test [5]; 1.71 µM in test [6]. Moreover, the GI50 in test [7] was 1.75 µM; in test [8], 1.71 µM. The TGI was determined as 3.01 µM in test [1]; 3.36 µM in test [2]; 3.12 µM in test [3]; 3.21 µM in test [4]; 3.24 µM in test [5]; 3.22 µM in test [6]. For the same compound, the TGI was determined as 3.43 µM in test [7] and 3.1 µM in test [8].
